Test results taken from a compilation of properties of binary mixtures (doi:10.1039/c3ra40303c).

Assay: xn = mol fraction of the nth substance listed
Conditions: 101 kPa

CC(O)C(=O)[O-].C[N+](C)(C)CCO + O
viscosity [mPa·s]
Conditions	x2 = 0	x2 = 0.0992	x2 = 0.2048	x2 = 0.3008	x2 = 0.4038	x2 = 0.5026	x2 = 0.5858	x2 = 0.701	x2 = 0.7993	x2 = 0.8998
293.15 K	818	620	478	375	259.2	–	117.8	59.52	–	–
298.15 K	–	433	336.9	266.4	–	128	–	45.76	–	6.185
303.15 K	393	–	242.5	193.6	138.2	95.8	66.88	35.7	16.85	5.25
308.15 K	283.9	225.3	178.9	–	104.4	73.36	51.91	28.36	13.79	–
313.15 K	209.9	168.3	134.9	107.7	80.45	57.24	41.04	22.9	11.44	–
318.15 K	158.7	128.4	103.9	85.2	63.16	45.5	32.99	18.78	–	3.405
323.15 K	122.3	99.8	81.5	67.27	50.43	36.74	26.93	–	–	3.001
328.15 K	95.9	78.9	64.95	54	40.89	30.11	22.29	13.14	–	2.666
333.15 K	76.5	63.39	–	–	33.61	24.92	18.67	–	6.101	2.384
338.15 K	61.9	51.63	43.1	36.28	27.97	20.93	15.82	9.621	5.323	2.146
343.15 K	50.76	42.6	35.8	30.3	23.55	17.78	13.55	8.353	4.692	1.941
348.15 K	42.13	35.55	30.05	25.59	20.05	15.25	11.71	7.305	4.171	–
353.15 K	35.38	–	25.52	21.82	17.22	13.2	10.2	6.438	–	–
